Measurements reported in patent US12454559B2, “Activating mitotic checkpoint control mechanisms” (The Regents of the University of Michigan, priority 2015, dated 2025).

Experiments:
HeLa cells = assay: Duration of mitosis / mitotic arrest by time-lapse imaging of HeLa cells expressing rapamycin-dimerizable Mps1 and KNL1 phosphodomain (eSAC); type: cell-based, human
Source text: As described elsewhere herein, a kinetochore-independent SAC activator was engineered which comprises a region of KNL1 that contains a series of Mps1 phosphorylation sites, known as “MELT repeats”, which are necessary for SAC activation, but lacks the kinetochore-localization domain at the C-terminus or the newly identified transient localization domain at its N-terminus (FIG. 21). FKBP12 was fused to this minimal KNL1 phosphodomain and FRB to Mps1, and rapamycin was used to induce dimerization of the fusion proteins in HeLa cells (FIGS. 17B, 22). […] These cells maintained an aligned metaphase plate indicating an inability to initiate anaphase and that the observed mitotic arrest was not due to the disruption of kinetochore-microtubule interactions. […] To further ensure kinetochore-independent operation of the dimerized proteins, the kinetochore-localization domain of Mps1 was removed (FIG. 17E). […] Furthermore, individually inhibiting the kinase activity of exogenous Mps1 using an analog-sensitive version of the kinase domain or preventing the phosphorylation of the minimal KNL1 phosphodomain by using a non-phosphorylatable version of the phosphodomain each prevented the rapamycin-induced mitotic arrest (FIG. 23). Thus, the catalytic activity of the Mps1 kinase domain and the Mps1 phosphorylation sites within the minimal phosphodomain are both essential for the rapamycin-induced metaphase arrest. […] The above described system of FKBP12/FRB-dimerizable Mps1 kinase domain and KNL1 phosophodomains is referred to in this example as an ectopic SAC activation system (eSAC).
MELT repeats in the eSAC phosphodomain were phosphorylated only in the presence of rapamycin, and were not phosphorylated if the SAC was activated by creating unattached kinetochores by treatment with the microtubule depolymerizing drug nocodazole (FIG. 18A). Reciprocally, the MELT repeats in endogenous KNL1 were not appreciably phosphorylated in rapamycin-treated cells, but were strongly phosphorylated in nocodazole-treated cells. […]

ipl1-as6 = assay: Spindle localization of Sli15-GFP in pre-anaphase cells expressing ipl1-as6; type: cell-based, budding yeast; conditions: 50 μM
Procedure: (§1) The ATP analogues 1-NMPP1 and 1-NAPP1 (final concentration 50 μM) were used to block the activity of mps1-as1 and ipl1-as6, respectively. Cells were first synchronized in S-phase using 100 mM hydroxyl urea (HU) for 2.5 h, washed with YPD, and then released into media containing the appropriate inhibitor for 15 min. This was followed by the addition of rapamycin to the media to anchor Mps1-Frb at Mtw1-C. The bud size was used to monitor cell-cycle progress.
To study the effect of 1-NAPP1 on ipl1-as6 activity, the spindle localization of Sli15-GFP was measured in pre-anaphase cells67. The bud size was used to find pre-anaphase cells. If the bud was smaller than 50% in size as compared with the mother cell, and contained a short bar of Sli15-GFP located within the mother cell and at the bud neck, then the cell was deemed to be in pre-anaphase.

yeast cells = assay: Yeast cell-cycle progression (large-budded / metaphase-arrested cells) after rapamycin-induced anchoring; type: cell-based, budding yeast
Procedure: Stock solution (1 mg ml^−1) of rapamycin in DMSO was diluted ×1,000 to achieve 1 μg ml^−1 final concentration in all experiments involving rapamycin-induced dimerization.
as §1
Anaphase cells in cycling cultures will also be scored as large-budded cells by this criterion. In strains carrying fluorescent markers, the separation of the kinetochore clusters or spindle pole bodies was used to determine whether or not the cells arrested in mitosis. Large-budded cells with kinetochore-cluster separation smaller than 1 μm or spindle length smaller than 2 μm were scored as metaphase-arrested cells (ref. 68; herein incorporated by reference in its entirety).

## c1nc2nc(Nc3ccc(N4CCOCC4)cc3)nc(NC3CCCCC3)c2[nH]1 [Reversine]
HeLa cells; HeLa cells in rapamycin-induced arrest, KNL1 phosphodomain-Mps1 dimerization
  Effect on rapamycin-induced mitotic arrest (time until anaphase entry): reversed rapidly
HeLa cells; HeLa cells, Reversine-treated vs untreated, no rapamycin
  Effect on SAC and cell division (duration of mitosis): inactivates the SAC and significantly accelerates cell division

## CC(C)(C)n1nc(-c2cccc3ccccc23)c2c(N)ncnc21 [1-NAPP1]
ipl1-as6
  Inhibition of ipl1-as6 (Sli15-GFP spindle localization): inhibits ipl1-as6
Yeast cells; S-phase synchronized ipl1-as6 cells released into 1-NAPP1 and rapamycin
  Effect on SAC activation induced by Mps1 anchored at Mtw1-C: did not have any effect on SAC activation

## CC(C)(C)n1nc(Cc2cccc3ccccc23)c2c(N)ncnc21 [1NM-PP1]
HeLa cells; 10 μM with Rapamycin, analog-sensitive Mps1S602A kinase domain with minimal phosphodomain
  Effect on eSAC-induced arrest: abrogated the eSAC-induced arrest
Yeast cells; heterozygous diploids expressing mps1-as1 and Mps1-Frb, 1-NMPP1 15 min, then rapamycin
  Effect on SAC activation by Mps1-Frb anchored at the kinetochore: does not affect SAC activation

B1: Spc105120: 329: minimal, anchorable phosphodomain comprising residues 120-329 of Spc105, contains all 6 MELT motifs (protein)
chain: LVTSTQIDDARTEEKTAAEEDPDTSGMELTEPIVATSDSNKASQHDPTSMEMTEVFPRSIRQKNPDVEGESIESSQQIDDVEAVREETMELTAIHNVHDYDSISEDTVEGEPIDLTEYESKPYVPNSVSRSTGKSSDYSVERSNDKSDLSKSENKTNSSQPMEITDIFHADPQNPMGLHSDNNINDDGNEMELTQIQTNFDRDNHHIDES
modifications: left off: small tags and cut ends
notes: minimal, anchorable phosphodomain comprising residues 120-329 of Spc105, contains all 6 MELT motifs
Yeast cells; anchored to Mps1-Fkbp12 with rapamycin, asynchronously dividing cells
  Cell-cycle arrest / SAC activation when anchored to Mps1: arrested in metaphase
